{"source": "paper PMC9828224", "about": "“Expansion of the Catalytic Repertoire of Alcohol Dehydrogenases in Plant Metabolism” (Angewandte Chemie (International Ed. in English), 2022)", "key": {"[1]": {"biological_target": "T1, GS (Catharanthus roseus, UniProt W8JWW7)", "T1 construct": "construct details only in supplement", "T1 sequence (W8JWW7 2-364)": "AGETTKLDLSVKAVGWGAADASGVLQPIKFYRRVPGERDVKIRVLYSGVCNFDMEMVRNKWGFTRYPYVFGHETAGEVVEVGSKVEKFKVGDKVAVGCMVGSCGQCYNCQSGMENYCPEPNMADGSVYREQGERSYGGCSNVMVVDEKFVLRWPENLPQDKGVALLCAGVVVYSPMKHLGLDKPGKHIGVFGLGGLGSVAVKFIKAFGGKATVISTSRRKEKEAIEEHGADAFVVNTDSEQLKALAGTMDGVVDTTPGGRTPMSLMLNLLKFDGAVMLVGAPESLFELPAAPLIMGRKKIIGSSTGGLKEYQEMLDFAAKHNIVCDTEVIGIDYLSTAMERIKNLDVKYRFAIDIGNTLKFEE", "test": "X-ray crystal structure of complex, […] Å", "assay_type": "binding", "conditions": "active site; catalytic and structural zinc bound"}, "[2]": {"biological_target": "T2, CrDPAS (Catharanthus roseus, UniProt A0A1B1FHP3)", "T2 construct": "gene DPAS; construct details only in supplement; text prints PDB 8B26 for both CrDPAS and apo TiDPAS2", "T2 sequence (A0A1B1FHP3 1-365)": "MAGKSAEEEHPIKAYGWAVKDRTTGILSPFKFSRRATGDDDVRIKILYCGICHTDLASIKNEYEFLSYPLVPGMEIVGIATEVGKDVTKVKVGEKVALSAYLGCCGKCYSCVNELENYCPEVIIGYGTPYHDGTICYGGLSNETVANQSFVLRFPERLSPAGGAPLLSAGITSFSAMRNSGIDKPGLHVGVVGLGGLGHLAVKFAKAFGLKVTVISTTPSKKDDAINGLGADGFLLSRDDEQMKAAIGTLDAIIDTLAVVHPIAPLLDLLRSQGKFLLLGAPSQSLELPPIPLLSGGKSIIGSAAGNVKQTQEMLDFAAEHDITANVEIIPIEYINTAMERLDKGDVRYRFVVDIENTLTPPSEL", "test": "enzymatic turnover, products by MS and NMR with deuterated cofactor", "assay_type": "biochemical", "conditions": "NADPH or 4-pro-R-NADPD; 1,4-iminium reduction"}}, "data": [{"compound": "NC(=O)c1ccc[n+]([C@@H]2O[C@H](COP(=O)(O)OP(=O)(O)OC[C@H]3O[C@@H](n4cnc5c(N)ncnc54)[C@H](OP(=O)(O)O)[C@@H]3O)[C@@H](O)[C@H]2O)c1", "note": "[NADP+]", "values": [{"measurement": "X-ray crystal structure of complex, 2.00 Å", "setting": "[1]", "result": "Active site of GS co‐crystallised with NADP^+"}]}, {"compound": "C/C=C1/C=[N+]2CCc3c([nH]c4ccccc34)[C@@](COC(C)=O)(C(=O)OC)[C@H]1CC2", "note": "[precondylocarpine acetate]", "values": [{"measurement": "enzymatic turnover, products by MS and NMR with deuterated cofactor", "setting": "[2]", "result": "we observed product formation when only DPAS and NADPH is incubated with precondylocarpine acetate"}]}]}
